The target of the test is Mitogen-activated protein kinase 1 (Homo sapiens, UniProt P28482). Nature of the test: Kinase Assay (New). As to conditions: pH 7.5. As for the experimental part: Compound dilution series are prepared in 100% DMSO. ERK2 is preincubated with compounds for 30 minutes at ambient temperature. Reaction is initiated by addition of a substrate cocktail of ERKtide peptide and ATP and is allowed to proceed for 2-3 hours at ambient temperature. […] Terminated reactions are read, after overnight incubation in the dark, on an EnVision Multilabel Plate Reader (PerkinElmer, Waltham, Mass.), with excitation and emission wavelengths set to 680 nm and 570 nm, respectively. IC50 values are determined using a four-parameter fit.
Sequence of Mitogen-activated protein kinase 1 (P28482 whole entry): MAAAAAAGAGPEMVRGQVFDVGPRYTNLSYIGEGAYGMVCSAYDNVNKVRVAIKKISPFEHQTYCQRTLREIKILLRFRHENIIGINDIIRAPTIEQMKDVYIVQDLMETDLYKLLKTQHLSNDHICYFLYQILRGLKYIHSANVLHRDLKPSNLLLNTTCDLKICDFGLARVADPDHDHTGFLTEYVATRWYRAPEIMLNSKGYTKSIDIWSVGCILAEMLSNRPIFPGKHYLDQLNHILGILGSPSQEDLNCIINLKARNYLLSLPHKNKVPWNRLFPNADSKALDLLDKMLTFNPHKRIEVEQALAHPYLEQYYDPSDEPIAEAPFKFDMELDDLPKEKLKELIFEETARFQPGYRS

The results in this text go back to BindingDB's records for patent US9242996 (Novartis, 2016).

By IC50 is commonly meant the concentration that inhibits the measured activity by half. The low end stands for inhibition by little substance, the high end for a need for much substance.

`Cc1nn(C)cc1-c1cnc(N)c(-c2ccc(C(=O)NCc3cccc(S(C)(=O)=O)c3)c(F)c2)n1` [US9242996, 145] returned a half-inhibitory concentration (IC50) of 7.33 nM.
